One data set deals with atherosclerotic plaque. As to conditions: orally to mice, total dose 4800 ng over 12 weeks; cited from earlier work.
A further data set relates to atherosclerotic lesions. Briefly: Atherosclerotic lesion quantification and immunohistochemistry after 8 weeks treatment. Type of data set: in vivo, ApoE−/− mice. As to conditions: total aVD dose 800 ng over 8 weeks. Here is the method: Treatment—Male ApoE^−/− mice at 8-weeks of age were fed a high-fat diet (HFD, Harlan Teklad TD.88137, 42% kcal from fat) for 4 weeks. Treatments were performed from week 12 and 100 μl of different treatments: 1, PBS (control); 2, free aVD (1 μg/ml); 3, PS-aVD; 4, P-D2-PEG5-PS-aVD; 5, P210/P-D2-PEG5-PS-aVD (2, 3, 4, 5 groups with the same aVD concentration of 1 μg/ml) were subsequently i.v. administrated every week for 8 weeks. During those weeks, mice were maintained on a high-fat diet, and the activities and body weight was monitored. In vivo experiments were performed with group sizes of N=5-6 mice per group and then independently repeated for a total of N=10-12 mice per group.
Atherosclerotic lesion quantification and immunohistochemistry—For atherosclerotic lesion analysis, mice were anesthetized and aortas were carefully harvested after perfusion with PBS under a microscope. The heart with ascending aorta was fixed with 4% paraformaldehyde (PFA)/5% sucrose in PBS solution 12 h at 4° C. […] For quantitative analysis of atherosclerotic lesions, 5-7 separate cross-sections from each mouse were stained with Oil Red 0 (ORO) (Sigma) for 1 h at 37° C. and 4′,6-diamidino-2-phenylindole (DAPI) for 5 min. […] An in-house software written in Python was developed for automated and quantitative image analysis (FIG. 16) […]

Another data set concerns BMDCs. Nature of the data set: BMDC activation and maturation in vitro (surface markers, IL12p70 ELISA). Type of data set: cell-based, C57BL/6 mice. The following applies: aVD 10^−8 M; LPS and IFN-γ stimulation. The procedure: Assessment of BMDC activation and maturation in vitro—BMDCs were cultured at a density of 1×10^6/ml and were incubated at 37° C. with 5% CO2 for 10 days. Free aVD, aVD-loaded PS (PS-aVD) or aVD-loaded P-D2-PEG5-PS (P-D2-PEG5-PS-aVD) with the aVD concentration of 10^−8 M were added when the media was refreshed on days 3 and 6. On day 7, 10 ng/ml murine recombinant interferon (IFN-γ) and 1 μg/ml LPS were added to stimulate dendritic cell maturation. At day 10, BMDCs were collected, washed with PBS and then incubated with anti-mouse CD16/CD32 to block FcRs and Zombie Aqua fixable viability dye to determine live/dead cells for 20 min. Cells were washed with PBS and stained with antibody cocktail (CD11c, […] CD80, and CD86) (Table 1) for 35 min at 4° C. BMDC maturation was determined by characterizing the cell surface marker expression using FACSDiva on a LSRII flow cytometer (BD Biosciences). Over 20,000 events were recorded for each sample and data were analyzed with FlowJo software. Different concentrations of P-D2-PEG5-PS-aVD (aVD concentration=0, 10^−9, and 10^−8 M) were also investigated on BMDC maturation using the same procedure described above. […] IL12p70 secretion in supernatant of the cell culture in the last 48 h were determined by enzyme-linked immunosorbent assay (ELISA) following the manufacturer's instructions (Fisher Thermo Scientific).
(In an ELISA, binding on a coated surface is turned into a signal by an enzyme label.)

For data set [1] the following is noted: in vivo; cited from earlier work.
For data set [2], the system named is RAW 264.7 cells. Nature of the data set: Cytotoxicity assay (calcein-AM / ethidium homodimer). Type of data set: cell-based. The procedure: Cytotoxicity assays—RAW 264.7 cells were plated into a 96 well black wall plates at 50,000 cells per well. Cells were then treated with Cel-MC or free celastrol, formulated as described above for the inhibition assays. After 16 h of incubation with free celastrol or Cel-MC formulations, cells were washed and incubated with 4 μM calcein-AM and 2 μM ethidium homodimer (Thermo Fisher), as described by the manufacturer. Readings were performed on an M3 plate reader, at excitation/emission wavelengths of 488/530 nm and 488/635 nm for calcein and ethidium homodimer, respectively. Readings were normalized as described by the manufacturer, accounting for background fluorescence and setting 100% viability for untreated cells and 0% viability for cells incubated with 100% methanol for 15 minutes.

In data set [3] the test system is RAW 264.7 cells. Briefly: Apoptosis of RAW 264.7 cells with or without LPS. Type of data set: cell-based. As to conditions: 1 μg/mL celastrol, 4 h. The procedure:
Celastrol has been investigated as a potential anti-cancer therapeutic due to its ability to induce cell death, and potentially binds to a number of proteins involved in apoptosis. As the manner of cell death can influence the downstream immune response, the onset of apoptosis upon treatment with celastrol was evaluated. Since NF-κB signalling in RAW 264.7 cells results in the secretion of TNF-α (FIG. 27C), an inducer of apoptosis in some contexts as well as cell survival and proliferation in others, the effect of the presence or absence of LPS during celastrol treatment on the induction of apoptosis or necrosis was assessed.

The nature of data set [4]: Celastrol quantification by HPLC: solubility, encapsulation efficiency, loading capacity, release. Type of data set: physicochemical. Here is the method:
Celastrol quantification—Celastrol solubility, encapsulation efficiency, and loading capacity were all assessed using high performance liquid chromatography (HPLC) using a Thermo Scientific C18 reverse phase column, with dimethylformamide (DMF) as the mobile phase at 0.5 mL/min. Area under the curve quantification of celastrol absorbance at 280 nm was performed using Thermo Fisher Chromeleon 7 software. A celastrol standard curve was constructed, with good linearity between celastrol concentrations of 2 mg/mL to 12.5 μg/mL, with 6.25 μg/mL being too close to the limit of detection for inclusion in the standard curve.
To determine the loading capacity of celastrol in micelles, defined here as the highest achievable mass of celastrol that can be stably loaded into 1 mg of micelles in 100 μL of 1×PBS, 1 mg of celastrol was added to 1 mg of PEG45-b-PPS20-Benzyl polymer in 500 uL THF in an HPLC vial. THF was removed by vacuum desiccation and micelles were formed via thin film rehydration with 100 μL of 1×PBS. […] Both samples (column filtered and unfiltered) were then lyophilized and redissolved in 200 μL DMF and celastrol content was quantified via HPLC.
To determine the encapsulation efficiency of celastrol in micelles, defined as the percentage of the originally added celastrol mass that is stably encapsulated in micelles after filtration to remove unencapsulated celastrol, micelles were formed as described above with variable amounts of celastrol, and were filtered using an LH-20 column. Filtered micelles were lyophilized and redissolved in 200 μL DMF and celastrol content was quantified via HPLC.
To determine the solubility of celastrol in aqueous buffer, 1 mg of celastrol was added to a glass vial along with 10 mL of 1×PBS. […] The lyophilized powder was resuspended in 200 μL DMF and celastrol was quantified via HPLC.
Celastrol release from micelles into 1×PBS with or without oxidative trigger was determined as follows. […] Absorbance at 424 nm, an absorbance peak for celastrol, were taken using a SpectraMax M3 plate reader using a 96-well plate.

The next data set relates to NF-κB. Nature of the data set: NF-κB inhibition assay in RAW Blue cells (SEAP reporter). Type of data set: cell-based. As to conditions: read-out: half maximal effective concentration (EC50), NF-κB inhibition. Here is the method: Inhibition assays—NF-κB inhibition by celastrol was assayed using RAW Blue cells (Invivogen), a stably transfected cell line derived from RAW 264.7 macrophage-like cells, which contain the gene for secreted alkaline phosphatase (SEAP) downstream of the NF-κB promoter. Cells were seeded into a 96 well plate at 50,000 cells per well. NF-κB signalling was induced using 100 ng/mL LPS, with celastrol-loaded micelles and free celastrol (0.1% THF in 1×PBS vehicle) added to the cells concurrent with LPS administration. All micelle formulations contained the same amount of polymer (15 mg/mL) but were loaded with variable amounts of celastrol, and free celastrol formulations were prepared to match the concentration of loaded celastrol within Cel-MC formulations. Free celastrol formulation were made by diluting celastrol stock solutions in THF with 1×PBS to reach the appropriate celastrol concentration and 0.1% THF in 1×PBS. Cells were incubated for 16 hours, as per assay instructions, before supernatant was collected for quantification of SEAP activity, as described by the manufacturer. Colorimetric quantification of SEAP activity was performed on an M3 plate reader (SpectraMax) at an absorbance wavelength of 630 nm.

Usually solubility stands for how much of the substance goes into solution per volume.

Molecules are shown by their SMILES. In brackets after ≈: the same amount, converted by molar mass. Like-named read-outs stand apart in the source and are kept apart here.

For the compound `C=C1/C(=C\C=C2/CCC[C@]3(C)[C@@H]([C@H](C)CCCC(C)(C)O)CC[C@@H]23)C[C@@H](O)C[C@@H]1O` [aVD, 1, 25-Dihydroxyvitamin D3], in the data set with atherosclerotic plaque, the “decrease in plaque area” value is reported as 39% and the “reduction in macrophage accumulation” value was 29%. Moreover, the “improvements in plaque area and macrophage content at the same dosage” value in the data set on atherosclerotic lesions is “no”. Also, the “expression of MHC-II, CD80 and CD86 by stimulated BMDCs” value in the data set with BMDCs is “significantly decreased expression”.
As for `CC1=C(O)C(=O)C=C2C1=CC=C1[C@@]2(C)CC[C@@]2(C)[C@@H]3C[C@](C)(C(=O)O)CC[C@]3(C)CC[C@]12C` [celastrol], in data set [1], the “serum half-life (T1/2β)” value is 8 to 10 h. The “cell viability as the dosage of celastrol is decreased” value with RAW 264.7 cells [2] is given as “not”. Moreover, the “cytotoxicity to RAW 264.7 cells” value in the data set with RAW 264.7 cells [2] (0.8 mg/mL celastrol) is on record as “highly cytotoxic”. Further, the figures for the apoptotic cells with RAW 264.7 cells [3] (in the absence of LPS) and in the data set with RAW 264.7 cells [3] (in the presence of LPS) were 16.5±1.8% and 37.5±4.4%, respectively. In addition, in data set [4], the “theoretical solubility in nanocarriers, times higher than unencapsulated celastrol” value is “over 10,000 times”. Also, the “theoretical celastrol ‘solubility’ in 1×PBS when loaded in PEG-b-PPS nanocarriers” value in data set [4] (200 mg/mL of polymer, loading capacity 22%) is 44000 µg/mL. Besides, the solubility at 1 h in data set [4] (aqueous buffer, thermodynamic from solid, detected in 1 mL of 1×PBS at 37 C, read-out: celastrol dissolved in aqueous buffer (solubility)) came out at 3.5 µg/mL (≈ 7.77 µM). In addition, the EC50 came out at 0.2 µg/mL (≈ 0.444 µM) in the data set with NF-κB (100 ng/mL LPS, 16 hours) and 0.2 µg/mL (≈ 0.444 µM) with NF-κB (LPS).

Values taken from patent US20230263729A1, “POLY(ETHYLENE GLYCOL)-BLOCK-POLY(PROPYLENE SULFIDE) NANOCARRIER PLATFORM FOR ENHANCED EFFICACY OF IMMUNOSUPPRESSIVE AGENTS” (Northwestern University, priority 2019, published 2023).
